According to the kinase profiling compilation of Christmann-Franck et al. (2016):

Assays:
Test in all cases: KINOMEscan competition binding
Conditions in all cases: compound 10.0 µM
[1] = target: BLK (human) (UniProt P51451)
[2] = target: BMPR1B (human) (UniProt O00238)
[3] = target: CSNK1G1 (human) (UniProt Q9HCP0)
[4] = target: DCLK1 (human) (UniProt O15075)
[5] = target: DYRK1B (human) (UniProt Q9Y463)
[6] = tested on: EIF2AK4 KD2 (human), Q9P2K8 [S808G]
[7] = target: EPHA1 (human) (UniProt P21709)
[8] = target: EPHA8 (human) (UniProt P29322)
[9] = target: FER (human) (UniProt P16591)
[10] = target: FES (human) (UniProt P07332)
[11] = target: FGFR2 (human) (UniProt P21802)
[12] = target: FGFR3 (human) (UniProt P22607)
[13] = target: FLT3 (human) (UniProt P36888)
[14] = target: GAK (human) (UniProt O14976)
[15] = target: GSK3B (human) (UniProt P49841)
[16] = target: LCK (human) (UniProt P06239)
[17] = target: MAP2K2 (human) (UniProt P36507)
[18] = target: MAP2K4 (human) (UniProt P45985)
[19] = target: MAP2K6 (human) (UniProt P52564)
[20] = target: MAP3K10 (human) (UniProt Q02779)
[21] = target: MAP4K1 (human) (UniProt Q92918)
[22] = target: MAPK10 (human) (UniProt P53779)
[23] = target: MINK1 (human) (UniProt Q8N4C8)
[24] = target: MKNK2 (human) (UniProt Q9HBH9)
[25] = target: MLTK (human) (UniProt Q9NYL2)
[26] = target: NTRK1 (human) (UniProt P04629)
[27] = target: NTRK3 (human) (UniProt Q16288)
[28] = target: PAK4 (human) (UniProt O96013)
[29] = target: PAK7 (human) (UniProt Q9P286)
[30] = target: PDGFRA (human) (UniProt P16234)
[31] = target: PIM2 (human) (UniProt Q9P1W9)
[32] = target: RPS6KA1 KD1 (human) (UniProt Q15418)
[33] = target: RPS6KA3 KD1 (human) (UniProt P51812)
[34] = target: SLK (human) (UniProt Q9H2G2)
[35] = target: SRMS (human) (UniProt Q9H3Y6)
[36] = target: STK16 (human) (UniProt O75716)
[37] = target: STK32B (human) (UniProt Q9NY57)
[38] = target: STK38L (human) (UniProt Q9Y2H1)
[39] = target: TAOK3 (human) (UniProt Q9H2K8)
[40] = target: TTK (human) (UniProt P33981)

Chain of GSK3B (human) (P49841 whole entry, looked up): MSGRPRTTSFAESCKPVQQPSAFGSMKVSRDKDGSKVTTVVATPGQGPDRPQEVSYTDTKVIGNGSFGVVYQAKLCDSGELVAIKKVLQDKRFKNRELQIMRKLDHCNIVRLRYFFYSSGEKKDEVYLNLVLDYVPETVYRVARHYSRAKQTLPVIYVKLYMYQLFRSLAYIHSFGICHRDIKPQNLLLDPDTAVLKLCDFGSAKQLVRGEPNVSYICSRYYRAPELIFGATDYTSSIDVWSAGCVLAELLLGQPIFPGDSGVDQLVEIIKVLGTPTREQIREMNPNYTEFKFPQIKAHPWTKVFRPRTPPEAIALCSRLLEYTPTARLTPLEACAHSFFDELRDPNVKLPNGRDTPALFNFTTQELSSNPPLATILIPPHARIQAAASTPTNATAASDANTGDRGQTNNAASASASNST
Chain of RPS6KA3 KD1 (human) (P51812 whole entry, looked up): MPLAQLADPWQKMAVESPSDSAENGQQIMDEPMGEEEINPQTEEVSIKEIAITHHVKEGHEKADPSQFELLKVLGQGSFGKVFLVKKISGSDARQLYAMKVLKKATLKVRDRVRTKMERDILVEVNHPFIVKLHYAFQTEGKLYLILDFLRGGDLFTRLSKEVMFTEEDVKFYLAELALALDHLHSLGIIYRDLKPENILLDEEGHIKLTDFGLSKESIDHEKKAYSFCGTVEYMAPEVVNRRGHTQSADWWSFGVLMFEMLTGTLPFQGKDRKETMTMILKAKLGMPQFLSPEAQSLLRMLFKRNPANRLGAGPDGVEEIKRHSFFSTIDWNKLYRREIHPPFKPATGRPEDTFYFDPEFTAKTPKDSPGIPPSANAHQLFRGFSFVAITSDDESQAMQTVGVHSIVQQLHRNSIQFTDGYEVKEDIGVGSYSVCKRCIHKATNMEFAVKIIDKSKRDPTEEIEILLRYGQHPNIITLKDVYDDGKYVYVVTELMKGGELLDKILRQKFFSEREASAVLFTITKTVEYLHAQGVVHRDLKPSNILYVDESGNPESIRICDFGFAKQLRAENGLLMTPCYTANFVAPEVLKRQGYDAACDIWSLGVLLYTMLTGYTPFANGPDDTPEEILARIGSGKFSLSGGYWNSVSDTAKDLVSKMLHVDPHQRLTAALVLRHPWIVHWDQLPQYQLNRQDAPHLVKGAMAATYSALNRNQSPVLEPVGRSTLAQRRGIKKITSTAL
Chain of MAP3K10 (human) (Q02779 whole entry, looked up): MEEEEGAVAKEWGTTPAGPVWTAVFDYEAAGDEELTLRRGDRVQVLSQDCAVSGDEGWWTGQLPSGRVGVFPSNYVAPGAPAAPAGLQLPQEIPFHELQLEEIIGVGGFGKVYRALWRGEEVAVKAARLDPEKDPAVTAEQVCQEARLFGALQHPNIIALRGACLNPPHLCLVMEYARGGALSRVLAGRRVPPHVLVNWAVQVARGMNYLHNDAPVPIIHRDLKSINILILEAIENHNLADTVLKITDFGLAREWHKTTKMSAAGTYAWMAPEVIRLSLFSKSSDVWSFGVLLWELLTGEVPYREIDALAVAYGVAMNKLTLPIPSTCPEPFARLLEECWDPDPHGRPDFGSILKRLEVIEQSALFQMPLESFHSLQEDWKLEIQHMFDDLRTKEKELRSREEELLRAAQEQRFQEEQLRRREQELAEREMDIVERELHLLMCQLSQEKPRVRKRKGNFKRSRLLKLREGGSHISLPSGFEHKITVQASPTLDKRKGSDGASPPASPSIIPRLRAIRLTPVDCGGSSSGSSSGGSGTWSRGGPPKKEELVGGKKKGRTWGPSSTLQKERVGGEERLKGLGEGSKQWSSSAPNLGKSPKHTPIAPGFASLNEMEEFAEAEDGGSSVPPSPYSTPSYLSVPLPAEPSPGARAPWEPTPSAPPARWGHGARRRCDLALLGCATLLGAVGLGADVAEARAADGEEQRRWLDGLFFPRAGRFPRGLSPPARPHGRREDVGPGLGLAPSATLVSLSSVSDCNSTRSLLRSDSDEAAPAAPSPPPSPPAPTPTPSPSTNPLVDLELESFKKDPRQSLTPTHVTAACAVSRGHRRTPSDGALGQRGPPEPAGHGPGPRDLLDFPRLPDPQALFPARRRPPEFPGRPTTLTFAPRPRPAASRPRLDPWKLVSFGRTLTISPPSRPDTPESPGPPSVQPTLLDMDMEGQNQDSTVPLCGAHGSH
Chain of FER (human) (P16591 whole entry, looked up): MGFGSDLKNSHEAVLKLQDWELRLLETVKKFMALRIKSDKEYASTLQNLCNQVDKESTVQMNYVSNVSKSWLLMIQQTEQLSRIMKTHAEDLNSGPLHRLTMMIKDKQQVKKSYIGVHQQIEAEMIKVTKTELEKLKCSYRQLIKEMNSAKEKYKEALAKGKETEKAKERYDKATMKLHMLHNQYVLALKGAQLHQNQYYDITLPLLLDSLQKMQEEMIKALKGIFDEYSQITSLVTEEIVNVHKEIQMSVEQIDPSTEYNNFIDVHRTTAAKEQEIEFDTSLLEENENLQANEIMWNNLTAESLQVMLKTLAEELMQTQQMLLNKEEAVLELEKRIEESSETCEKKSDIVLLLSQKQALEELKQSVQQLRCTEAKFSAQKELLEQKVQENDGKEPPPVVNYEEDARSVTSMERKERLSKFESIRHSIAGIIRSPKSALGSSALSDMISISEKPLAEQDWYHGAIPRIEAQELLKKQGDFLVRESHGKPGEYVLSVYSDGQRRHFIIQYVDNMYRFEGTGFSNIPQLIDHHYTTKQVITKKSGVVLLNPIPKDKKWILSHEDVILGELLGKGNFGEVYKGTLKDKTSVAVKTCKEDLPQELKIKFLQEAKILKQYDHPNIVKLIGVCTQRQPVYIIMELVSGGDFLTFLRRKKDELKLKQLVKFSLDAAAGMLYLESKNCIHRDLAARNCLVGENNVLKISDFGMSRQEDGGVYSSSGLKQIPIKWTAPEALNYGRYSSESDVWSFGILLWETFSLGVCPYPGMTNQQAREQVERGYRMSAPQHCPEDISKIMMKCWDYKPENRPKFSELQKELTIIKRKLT
Chain of MAP4K1 (human) (Q92918 whole entry, looked up): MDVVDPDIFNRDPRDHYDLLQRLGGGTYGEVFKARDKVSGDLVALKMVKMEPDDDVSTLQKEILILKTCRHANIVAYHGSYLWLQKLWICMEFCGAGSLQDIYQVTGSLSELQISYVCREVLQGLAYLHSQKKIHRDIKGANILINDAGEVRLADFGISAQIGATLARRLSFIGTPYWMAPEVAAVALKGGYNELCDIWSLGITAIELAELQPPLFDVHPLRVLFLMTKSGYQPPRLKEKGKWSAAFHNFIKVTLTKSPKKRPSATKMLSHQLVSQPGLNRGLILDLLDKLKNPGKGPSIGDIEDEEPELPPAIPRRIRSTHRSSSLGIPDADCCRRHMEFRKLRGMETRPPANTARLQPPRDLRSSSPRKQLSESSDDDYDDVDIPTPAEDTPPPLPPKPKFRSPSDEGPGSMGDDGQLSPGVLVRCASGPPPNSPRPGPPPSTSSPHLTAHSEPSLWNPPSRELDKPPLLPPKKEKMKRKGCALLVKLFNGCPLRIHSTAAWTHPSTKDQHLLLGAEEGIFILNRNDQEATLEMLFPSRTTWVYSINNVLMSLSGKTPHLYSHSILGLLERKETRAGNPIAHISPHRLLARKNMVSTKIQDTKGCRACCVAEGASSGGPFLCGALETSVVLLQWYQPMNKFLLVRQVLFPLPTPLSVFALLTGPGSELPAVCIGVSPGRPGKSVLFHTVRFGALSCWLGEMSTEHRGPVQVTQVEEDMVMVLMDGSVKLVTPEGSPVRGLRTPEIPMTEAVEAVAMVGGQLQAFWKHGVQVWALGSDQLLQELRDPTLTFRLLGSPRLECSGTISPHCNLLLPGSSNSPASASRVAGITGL
Chain of DCLK1 (human) (O15075 whole entry, looked up): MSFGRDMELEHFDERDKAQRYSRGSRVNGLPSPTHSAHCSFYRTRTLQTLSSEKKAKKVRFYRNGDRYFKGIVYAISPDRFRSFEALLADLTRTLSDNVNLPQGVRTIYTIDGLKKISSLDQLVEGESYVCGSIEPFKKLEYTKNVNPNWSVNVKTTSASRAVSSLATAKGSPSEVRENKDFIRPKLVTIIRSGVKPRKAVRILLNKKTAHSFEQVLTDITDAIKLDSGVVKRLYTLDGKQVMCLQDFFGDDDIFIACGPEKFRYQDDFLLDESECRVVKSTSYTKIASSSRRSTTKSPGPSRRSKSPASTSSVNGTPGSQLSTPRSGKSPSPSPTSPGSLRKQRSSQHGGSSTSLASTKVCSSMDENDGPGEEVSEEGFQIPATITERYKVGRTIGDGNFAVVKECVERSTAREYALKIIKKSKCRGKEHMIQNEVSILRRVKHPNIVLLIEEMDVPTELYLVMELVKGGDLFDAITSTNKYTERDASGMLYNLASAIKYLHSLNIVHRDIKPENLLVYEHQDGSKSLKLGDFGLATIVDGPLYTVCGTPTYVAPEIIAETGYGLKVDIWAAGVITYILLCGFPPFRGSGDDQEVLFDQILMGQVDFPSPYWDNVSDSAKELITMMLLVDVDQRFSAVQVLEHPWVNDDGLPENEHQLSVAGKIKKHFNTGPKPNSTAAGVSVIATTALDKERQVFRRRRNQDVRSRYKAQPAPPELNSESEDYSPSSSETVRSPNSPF
Chain of CSNK1G1 (human) (Q9HCP0 whole entry, looked up): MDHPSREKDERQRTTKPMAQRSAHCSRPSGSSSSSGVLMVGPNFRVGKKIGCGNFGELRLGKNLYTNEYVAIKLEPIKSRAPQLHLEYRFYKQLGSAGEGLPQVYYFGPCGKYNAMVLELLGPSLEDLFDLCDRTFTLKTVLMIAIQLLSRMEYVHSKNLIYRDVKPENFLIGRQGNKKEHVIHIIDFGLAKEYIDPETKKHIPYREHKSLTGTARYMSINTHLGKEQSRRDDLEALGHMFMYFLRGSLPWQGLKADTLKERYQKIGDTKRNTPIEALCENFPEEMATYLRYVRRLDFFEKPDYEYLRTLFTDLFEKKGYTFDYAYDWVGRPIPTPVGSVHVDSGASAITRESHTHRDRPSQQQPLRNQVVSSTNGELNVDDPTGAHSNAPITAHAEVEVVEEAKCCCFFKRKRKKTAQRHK

kinase still bound, per cent of control [1] | kinase still bound, per cent of control [2] | kinase still bound, per cent of control [3] | kinase still bound, per cent of control [4] | kinase still bound, per cent of control [5] | kinase still bound, per cent of control [6] | kinase still bound, per cent of control [7] | kinase still bound, per cent of control [8] | kinase still bound, per cent of control [9] | kinase still bound, per cent of control [10] | kinase still bound, per cent of control [11] | kinase still bound, per cent of control [12] | kinase still bound, per cent of control [13] | kinase still bound, per cent of control [14] | kinase still bound, per cent of control [15] | kinase still bound, per cent of control [16] | kinase still bound, per cent of control [17] | kinase still bound, per cent of control [18] | kinase still bound, per cent of control [19] | kinase still bound, per cent of control [20] | further results | Compound
0.75% | 100% | 100% | 1% | 17% | 0.35% | 100% | 100% | 11% | 11% | 100% | 100% | 4.6% | 0.45% | 100% | 100% | 100% | 100% | 100% | 100% | kinase still bound, per cent of control [21]: 34%; kinase still bound, per cent of control [22]: 13%; kinase still bound, per cent of control [23]: 100%; kinase still bound, per cent of control [24]: 2%; kinase still bound, per cent of control [25]: 100%; kinase still bound, per cent of control [26]: 100%; kinase still bound, per cent of control [27]: 100%; kinase still bound, per cent of control [28]: 100%; kinase still bound, per cent of control [29]: 100%; kinase still bound, per cent of control [30]: 100%; kinase still bound, per cent of control [31]: 100%; kinase still bound, per cent of control [32]: 12%; kinase still bound, per cent of control [33]: 100%; kinase still bound, per cent of control [34]: 100%; kinase still bound, per cent of control [35]: 100%; kinase still bound, per cent of control [36]: 27%; kinase still bound, per cent of control [37]: 100%; kinase still bound, per cent of control [38]: 100%; kinase still bound, per cent of control [39]: 100%; kinase still bound, per cent of control [40]: 2% | C=CC(=O)Nc1cccc(Oc2nc(Nc3ccc(N4CCN(C)CC4)cc3OC)ncc2Cl)c1
100% | 100% | 100% | 100% | 100% | 100% | 100% | 0.35% | 100% | 100% | 100% | 100% | 100% | 100% | 100% | 1.9% | 100% | 100% | 100% | 100% | kinase still bound, per cent of control [21]: 100%; kinase still bound, per cent of control [22]: 100%; kinase still bound, per cent of control [23]: 100%; kinase still bound, per cent of control [24]: 100%; kinase still bound, per cent of control [25]: 6.9%; kinase still bound, per cent of control [26]: 100%; kinase still bound, per cent of control [27]: 15%; kinase still bound, per cent of control [28]: 100%; kinase still bound, per cent of control [29]: 100%; kinase still bound, per cent of control [30]: 0.2%; kinase still bound, per cent of control [31]: 100%; kinase still bound, per cent of control [32]: 100%; kinase still bound, per cent of control [33]: 100%; kinase still bound, per cent of control [34]: 100%; kinase still bound, per cent of control [35]: 100%; kinase still bound, per cent of control [36]: 100%; kinase still bound, per cent of control [37]: 100%; kinase still bound, per cent of control [38]: 100%; kinase still bound, per cent of control [39]: 100%; kinase still bound, per cent of control [40]: 100% | Cc1ccc(C(=O)Nc2cccc(C(F)(F)F)c2)cc1Nc1cncc(C(N)=O)c1
